Source: patent publication US20120244549A1, “Detection Method for Methyltransferase Enzymatic Activity” (BELLBROOK LABS, LLC, priority 2011, published 2012)

Molecular target: T1, G9a methyltransferase (Homo sapiens, UniProt Q96KQ7)
T1 sequence (Q96KQ7 1-1210): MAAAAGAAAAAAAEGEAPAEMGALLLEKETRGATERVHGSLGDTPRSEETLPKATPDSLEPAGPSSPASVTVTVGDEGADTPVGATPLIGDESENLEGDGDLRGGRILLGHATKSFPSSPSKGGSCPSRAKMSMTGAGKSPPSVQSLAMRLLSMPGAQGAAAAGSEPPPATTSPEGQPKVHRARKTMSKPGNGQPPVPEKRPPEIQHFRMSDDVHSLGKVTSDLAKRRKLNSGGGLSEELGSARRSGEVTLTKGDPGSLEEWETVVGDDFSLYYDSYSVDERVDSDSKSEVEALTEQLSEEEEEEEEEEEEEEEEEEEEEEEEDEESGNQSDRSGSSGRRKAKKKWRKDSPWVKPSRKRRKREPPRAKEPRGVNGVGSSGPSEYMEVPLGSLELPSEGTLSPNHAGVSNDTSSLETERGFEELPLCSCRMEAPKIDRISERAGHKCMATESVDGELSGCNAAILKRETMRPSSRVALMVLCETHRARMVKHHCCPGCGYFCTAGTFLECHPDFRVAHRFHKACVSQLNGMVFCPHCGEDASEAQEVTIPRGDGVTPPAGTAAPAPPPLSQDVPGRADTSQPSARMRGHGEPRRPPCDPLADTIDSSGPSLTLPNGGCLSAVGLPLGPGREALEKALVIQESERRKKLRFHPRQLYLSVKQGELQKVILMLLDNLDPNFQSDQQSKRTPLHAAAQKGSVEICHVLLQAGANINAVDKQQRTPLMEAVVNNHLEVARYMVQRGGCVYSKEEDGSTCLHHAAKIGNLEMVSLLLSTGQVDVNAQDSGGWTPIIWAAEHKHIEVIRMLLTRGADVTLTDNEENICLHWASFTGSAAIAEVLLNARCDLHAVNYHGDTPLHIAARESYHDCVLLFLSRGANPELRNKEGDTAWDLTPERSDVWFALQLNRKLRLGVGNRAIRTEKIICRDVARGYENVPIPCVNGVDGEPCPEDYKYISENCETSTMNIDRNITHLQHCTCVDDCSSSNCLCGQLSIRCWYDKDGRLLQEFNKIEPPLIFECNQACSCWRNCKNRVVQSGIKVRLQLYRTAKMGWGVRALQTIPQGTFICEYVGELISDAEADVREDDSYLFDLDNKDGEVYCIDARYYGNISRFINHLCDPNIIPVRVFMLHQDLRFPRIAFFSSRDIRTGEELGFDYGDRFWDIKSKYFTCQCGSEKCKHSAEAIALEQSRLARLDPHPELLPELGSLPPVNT
Test: G9a histone methyltransferase inhibitor dose response, coupled-enzyme AMP fluorescent immunodetection assay (FIG. 6)
Assay type: biochemical
Description: In addition, inhibitor potencies were determined with G9a HMT.
HMT reactions were run for 60 minutes followed by addition of quench and detection reagents including the SAM-SAH coupling enzyme mixture and the Transcreener® AMP2/GMP2 Assay monoclonal antibody and tracer.

**Q.** With CN1C(=O)[C@@]23C[C@]4([C@]56C[C@@]78SS[C@@](CO)(C(=O)N7[C@H]5Nc5ccccc56)N(C)C8=O)c5ccccc5N[C@@H]4N2C(=O)[C@]1(CO)SS3 [chaetocin] as the molecule, how does the IC50 read?
**A.** The IC50 was 770 µM.
